Data reported in patent publication US10214542B2, “Modified macrocyclic compounds” (BAYER PHARMA AKTIENGESELLSCHAFT, priority 2015, dated 2019).
Read-outs that look alike come from different tables or passages of the source.

Tests used:
HeLa cells = test: Proliferation assay, crystal violet (Method 3); format: cell-based, human; conditions: 4 days, read-out: Inhibition of HeLa cell proliferation IC50
Protocol: (§1) Cultivated tumour cells (HeLa, human cervical tumour cells, ATCC CCL-2; NCI-H460, human non-small cell lung carcinoma cells, ATCC HTB-177; DU 145, hormone-independent human prostate carcinoma cells, ATCC HTB-81; HeLa-MaTu-ADR, multidrug-resistant human cervical carcinoma cells, EPO-GmbH Berlin; Caco-2, human colorectal carcinoma cells, ATCC HTB-37; B16F10, mouse melanoma cells, ATCC CRL-6475) were plated at a density of 5,000 cells/well (DU145, HeLa-MaTu-ADR), 3,000 cells/well (NCI-H460, HeLa), 1,500 cells/well (Caco-2), or 1,000 cells/well (B16F10) in a 96-well multititer plate in 200 μL of their respective growth medium supplemented 10% fetal calf serum. After 24 hours, the cells of one plate (zero-point plate) were stained with crystal violet (see below), while the medium of the other plates was supplemented with the test substances in various concentrations (0 μM, as well as in the range of 0.0001-10 μM; the final concentration of the solvent dimethyl sulfoxide was adjusted to 0.1%) using a Hewlett-Packard HP D300 Digital Dispenser. The cells were incubated for 4 days in the presence of test substances. Cell proliferation was determined by staining the cells with crystal violet: the cells were fixed by adding 20 μl/measuring point of an 11% glutaric aldehyde solution for 15 minutes at room temperature. After three washing cycles of the fixed cells with water, the plates were dried at room temperature. The cells were stained by adding 100 μl/measuring point of a 0.1% crystal violet solution (pH 3.0). After three washing cycles of the stained cells with water, the plates were dried at room temperature. The dye was dissolved by adding 100 μl/measuring point of a 10% acetic acid solution. The extinction was determined by photometry at a wavelength of 595 nm. The change of cell number, in percent, was calculated by normalization of the measured values to the extinction values of the zero-point plate (=0%) and the extinction of the untreated (0 μm) cells (=100%). The IC50 values (inhibitory concentration at 50% of maximal effect) were determined by means of a 4 parameter fit.

A2780 cells = test: Proliferation assay, Cell Titre-Glo viability (Method 3); format: cell-based, human; conditions: Homo sapiens, A2780, 72 h, A2780, 72-hour exposure; read-out: Inhibition of A2780 cell proliferation IC50
Protocol: (§2) A2780 human ovarian carcinoma cells (ECACC #93112519) and non-adherent MOLM-13 human acute myeloid leukemia cells (DSMZ ACC 554) were seeded at a density of 3,000 cell/well (A2780) or 5,000 cells/well (MOLM-13) in a 96-well multititer plate in 150 μL of growth medium supplemented 10% fetal calf serum. After 24 hours, cell viability of one plate (zero-point plate) was determined with the Cell Titre-Glo Luminescent Cell Viability Assay (Promega), while the medium of the other plates was supplemented with the test substances in various concentrations (0 μM, as well as in the range of 0.0001-10 μM; the final concentration of the solvent dimethyl sulfoxide was adjusted to 0.1%) using a Hewlett-Packard HP D300 Digital Dispenser. Cell viability was assessed after 72-hour exposure with the Cell
(§3) Titre-Glo Luminescent Cell Viability Assay (Promega). IC50 values (inhibitory concentration at 50% of maximal effect) were determined by means of a 4 parameter fit on measurement data which were normalized to vehicle (DMSO) treated cells (=100%) and measurement readings taken immediately before compound exposure (=0%).

DU145 cells = test: Proliferation assay, crystal violet (Method 3); format: cell-based; conditions: Homo sapiens, DU-145, 96 h; DU145, 4 days; read-out: Inhibition of DU145 cell proliferation IC50
Protocol: as §1

NCI-H460 cells = test: Proliferation assay, crystal violet (Method 3); format: cell-based; conditions: Homo sapiens, 96 h; NCI-H460, 4 days; read-out: Inhibition of NCI-H460 cell proliferation IC50
Protocol: as §1

B16F10 cells = test: Proliferation assay, crystal violet (Method 3); format: cell-based; conditions: Mus musculus, B16-F10, 96 h; B16F10, 4 days; read-out: Inhibition of B16F10 cell proliferation IC50
Protocol: as §1

Caco-2 cells = test: Proliferation assay, crystal violet (Method 3); format: cell-based; conditions: Homo sapiens, 96 h; Caco-2, 4 days; read-out: Inhibition of Caco-2 cell proliferation IC50
Protocol: as §1

HeLa-MaTu-ADR cells = test: Proliferation assay, crystal violet (Method 3); format: cell-based; conditions: Homo sapiens, 96 h, 4 days, read-out: Inhibition of HeLa-MaTu-ADR cell proliferation IC50
Protocol: as §1

MOLM-13 cells = test: Proliferation assay, Cell Titre-Glo viability (Method 3); format: cell-based; conditions: Homo sapiens; MOLM-13, 72-hour exposure; read-out: Inhibition of MOLM-13 cell proliferation IC50
Protocol: as §2, §3

Row | Structure (SMILES) | IC50 (HeLa cells) [nM] | IC50 (HeLa cells; Homo sapiens, 96 h) [nM] | IC50 (A2780 cells) [nM] | IC50 (DU145 cells) [nM] | IC50 (NCI-H460 cells) [nM] | IC50 (B16F10 cells) [nM] | IC50 (Caco-2 cells) [nM] | IC50 (HeLa-MaTu-ADR cells) [nM] | IC50 (MOLM-13 cells) [nM]
1 | CS(=O)(Cc1cc2nc(c1)Nc1cc(c(F)cn1)-c1ccc(F)cc1OCCCCN2)=NC(=O)OCc1ccccc1 (racemic) [Example 2, (rac)-Benzyl[{[16,20-difluoro-3,4,5,6-tetrahydro-2H,12H-11,7-(azeno)-13,17-(metheno)-1,6,12,14-benzoxatriazacyclononadecin-9-yl]methyl}(methyl)oxido-λ^6-sulfanylidene]carbamate] | > 100 | 77 | 38 | 93 | 80 | 77 | 98 | 119 | 3
2 | CC(C)(C)OC(=O)N=S(C)(=O)Cc1cc2nc(c1)Nc1cc(c(F)cn1)-c1ccc(F)cc1OCCCN2 (racemic) [Example 7, (rac)-tert-butyl[{[15,19-difluoro-2,3,4,5-tetrahydro-11H-10,6-(azeno)-16,12-(metheno)-1,5,11,13-benzoxatriazacyclooctadecin-8-yl]methyl}(methyl)oxido-λ^6-sulfanylidene]carbamate] |  | 32 | 7 | 30 | 37 | 44 | 33 | 53 | 6.8
3 | CS(=N)(=O)Cc1cc2nc(c1)Nc1cc(c(F)cn1)-c1ccc(F)cc1OCCCN2 (racemic) [Example 8, (rac)-15,19-difluoro-8-[(S-methylsulfonimidoyl)methyl]-2,3,4,5-tetrahydro-11H-10,6-(azeno)-16,12-(metheno)-1,5,11,13-benzoxatriazacyclooctadecine] |  | 3.3 | 1.4 | 5.6 | 39 | 11 | 7.6 | 5 | 2.2
4 | CC(C)(C)OC(=O)N=S(C)(=O)Cc1cc2nc(c1)Nc1cc(c(F)cn1)-c1ccc(F)cc1OCCCCCN2 (racemic) [Example 9, (rac)-tert-butyl[{[17,21-difluoro-2,3,4,5,6,7-hexahydro-13H-12,8-(azeno)-14,18-(metheno)-1,7,13,15-benzoxatriazacycloicosin-10-yl]methyl}(methyl)oxido-λ^6-sulfanylidene]carbamate] |  | 33 | 27 | 36 | 39 | 85 | 48 | 75 | 19
5 | CS(=N)(=O)Cc1cc2nc(c1)Nc1cc(c(F)cn1)-c1ccc(F)cc1OCCCCCN2 (racemic) [Example 10, (rac)-17,21-difluoro-10-[(S-methylsulfonimidoyl)methyl]-2,3,4,5,6,7-hexahydro-13H-12,8-(azeno)-14,18-(metheno)-1,7,13,15-benzoxatriazacycloicosine] |  | 14 | 5.2 | 11 | 18 | 26 | 13 | 19 | 4.4
6 | CC(C)(C)OC(=O)N=S(C)(=O)Cc1cc2cc(c1)OCCCNc1cc(F)ccc1-c1nc(ncc1F)N2 (racemic) [Example 13, (rac)-tert-butyl[{[15,19-difluoro-1,2,3,4-tetrahydro-16,12-(azeno)-6,10-(metheno)-5,1,11,13-benzoxatriazacyclooctadecin-8(11H)-yl]methyl}(methyl)oxido-λ^6-sulfanylidene]carbamate] |  | 78 | 19 | 55 | 79 |  | 68 | 94 | 14
7 | CS(=N)(=O)Cc1cc2cc(c1)OCCCNc1cc(F)ccc1-c1nc(ncc1F)N2 (racemic) [Example 14, rac-15,19-difluoro-8-[(S-methylsulfonimidoyl)methyl]-1,2,3,4-tetrahydro-16,12-(azeno)-6,10-(metheno)-5,1,11,13-benzoxatriazacyclooctadecine] |  |  | 4.7 |  |  |  |  |  | 3.1
8 | CN1CCCCOc2cc(F)ccc2-c2nc(ncc2F)Nc2cc(CS(C)(=N)=O)cc1c2 (racemic) [Example 23, (rac)-16,20-difluoro-6-methyl-9-[(S-methylsulfonimidoyl)methyl]-3,4,5,6-tetrahydro-2H,12H-13,17-(azeno)-11,7-(metheno)-1,6,12,14-benzoxatriazacyclononadecine] |  |  | 13 |  |  |  |  |  | 9.8

Next, values leading:

Row | IC50 (HeLa cells) [nM] | IC50 (HeLa cells; Homo sapiens, 96 h) [nM] | IC50 (A2780 cells) [nM] | IC50 (DU145 cells) [nM] | IC50 (NCI-H460 cells) [nM] | IC50 (B16F10 cells) [nM] | IC50 (Caco-2 cells) [nM] | IC50 (HeLa-MaTu-ADR cells) [nM] | IC50 (MOLM-13 cells) [nM] | Structure (SMILES)
9 |  |  | 5.5 |  |  |  |  |  | 3.4 | CS(=N)(=O)Cc1cc2nc(c1)Nc1cc(c(F)cn1)-c1ccc(F)cc1OCCCCN2 (racemic) [Example 3, (rac)-16,20-Difluoro-9-[(S-methylsulfonimidoyl)methyl]-3,4,5,6-tetrahydro-2H,12H-11,7-(azeno)-13,17-(metheno)-1,6,12,14-benzoxatriazacyclononadecine]
10 |  | 955 | 270 | 836 | 1070 |  | 761 | 830 | 24 | C[S+]([O-])Cc1cc2nc(c1)OCCCCc1cc(F)ccc1-c1cc(ncc1F)N2 (racemic) [Example 5, (rac)-2,18-Difluoro-9-[(methylsulfinyl)methyl]-13,14,15,16-tetrahydro-6H-7,11-(azeno)-5,1-(metheno)-12,4,6-benzoxadiazacyclooctadecine]
11 |  | 10 | 4.6 | 12 | 12 | 12 | 8.9 | 12 | 8.2 | CN1CCCCOc2cc(F)ccc2-c2cc(ncc2F)Nc2cc(CS(C)(=N)=O)cc1n2 (racemic) [Example 11, (rac)-16,20-difluoro-6-methyl-9-[(S-methylsulfonimidoyl)methyl]-3,4,5,6-tetrahydro-2H-7,11-(azeno)-17,13-(metheno)-1,6,12,14-benzoxatriazacyclononadecine]
12 |  | 9280 |  | > 10000 | 4770 | > 10000 | 2550 | 5570 | 970 | CSCc1cc2nc(c1)OCCCCc1cc(F)ccc1-c1cc(ncc1F)N2 [Example 4, 2,18-Difluoro-9-[(methylsulfanyl)methyl]-13,14,15,16-tetrahydro-6H-7,11-(azeno)-5,1-(metheno)-12,4,6-benzoxadiazacyclooctadecine]
13 |  | > 10000 | > 100 | > 10000 | > 10000 | > 10000 | 4640 | > 10000 |  | CSCc1cc2nc(c1)OCCCCCc1cc(F)ccc1-c1cc(ncc1F)N2 [Example 18, 2,19-difluoro-9-[(methylsulfanyl)methyl]-14,15,16,17-tetrahydro-6H,13H-7,11-(azeno)-5,1-(metheno)-12,4,6-benzoxadiazacyclononadecine]
